Results from ChEMBL document CHEMBL1142025 (Bioorg Med Chem Lett, 2005).

How the values were obtained:
[1] = target: T1, Human immunodeficiency virus type 1 protease (Human immunodeficiency virus 1, UniProt Q72874); experiment: Binding affinity against human immunodeficiency virus (HIV) protease; assay type: single protein, human immuno deficiency virus protease
Renin = target: T2, Renin (Homo sapiens, UniProt P00797); experiment: Inhibitory concentration against renin
T2 sequence (P00797 whole entry): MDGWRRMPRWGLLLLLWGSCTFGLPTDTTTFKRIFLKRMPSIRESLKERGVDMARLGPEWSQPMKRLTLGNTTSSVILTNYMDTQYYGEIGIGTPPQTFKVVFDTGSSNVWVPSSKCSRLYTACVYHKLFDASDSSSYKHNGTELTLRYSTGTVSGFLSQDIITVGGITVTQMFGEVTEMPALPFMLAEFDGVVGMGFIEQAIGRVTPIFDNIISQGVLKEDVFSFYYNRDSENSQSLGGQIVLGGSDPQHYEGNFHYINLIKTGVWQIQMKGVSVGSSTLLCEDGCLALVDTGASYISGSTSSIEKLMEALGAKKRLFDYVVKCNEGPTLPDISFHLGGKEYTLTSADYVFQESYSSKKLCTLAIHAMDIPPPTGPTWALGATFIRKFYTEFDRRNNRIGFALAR

Pepsin A = Pepsin A (Homo sapiens, UniProt P0DJD9); experiment: Inhibitory concentration against pepsin
[2] = target: T1, Human immunodeficiency virus type 1 protease; experiment: Inhibitory concentration against human immunodeficiency virus (HIV) protease; design: species or system human immuno deficiency virus protease
[3] = Inhibitory concentration against cathepsin

Pepsin A, sequence (P0DJD9 whole entry): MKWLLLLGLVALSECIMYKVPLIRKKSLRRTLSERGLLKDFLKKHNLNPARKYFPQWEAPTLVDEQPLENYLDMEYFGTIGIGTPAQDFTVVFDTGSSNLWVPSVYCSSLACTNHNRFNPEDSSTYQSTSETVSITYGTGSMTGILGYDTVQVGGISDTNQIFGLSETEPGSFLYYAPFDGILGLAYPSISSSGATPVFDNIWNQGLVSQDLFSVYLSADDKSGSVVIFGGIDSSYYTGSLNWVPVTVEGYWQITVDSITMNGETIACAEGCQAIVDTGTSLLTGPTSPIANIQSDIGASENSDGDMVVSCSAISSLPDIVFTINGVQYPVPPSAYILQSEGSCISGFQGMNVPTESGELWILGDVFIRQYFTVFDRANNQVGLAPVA

Row | Compound | Ki [1] [nM] | also measured
1 | Cc1ccc(S(=O)(=O)N(CC(C)C)[C@@H](CCCCCNC(=O)OCC2c3ccccc3-c3ccccc32)C(=O)O)cc1 | > 250 | –
2 | CCC(CC)CN([C@@H](CCCCNC(=O)OCC1c2ccccc2-c2ccccc21)C(=O)O)S(=O)(=O)c1ccc(C)cc1 | 15.2 | –
3 | Cc1ccc(S(=O)(=O)N(CC(C)C)[C@@H](CCCCNC(=O)OC2c3ccccc3-c3ccccc32)C(=N)S)cc1 | 127 | –
4 | CC(C)CN([C@@H](CCCCNC(=O)OCC1c2ccccc2-c2ccccc21)C(=O)O)S(=O)(=O)c1cccc2ccccc12 | 54.9 | –
5 | Cc1ccc(S(=O)(=O)N(CC(C)C)[C@@H](CCCCNC(=O)OC(C)(C)C)C(=O)O)cc1 | > 250 | –
6 | CC(C)(C)OC(=O)NCCCC[C@H](NC(=O)OCc1ccccc1)C(=O)O | > 100000 | –
7 | Cc1ccc(S(=O)(=O)N(CC(C)C)[C@H](CO)CCCCNC(=O)OC2c3ccccc3-c3ccccc32)cc1 | 107 | –
8 | Cc1ccc(S(=O)(=O)N(CC(C)C)[C@@H](CCCCNC(=O)OC2c3ccccc3-c3ccccc32)C(=O)NO)cc1 | 245 | –
9 | Cc1ccc(S(=O)(=O)N(CC(C)C)[C@@H](CCCCNC(=O)OC2c3ccccc3-c3ccccc32)c2nnn[nH]2)cc1 | > 300 | –
10 | CC(C)CN(C(=O)c1ccccc1)[C@@H](CCCCNC(=O)OCC1c2ccccc2-c2ccccc21)C(=O)O | > 300 | –
11 | Cc1ccc(S(=O)(=O)N(Cc2ccccc2)[C@@H](CCCCNC(=O)OCC2c3ccccc3-c3ccccc32)C(=O)O)cc1 | 19.6 | –
12 | Cc1ccc(S(=O)(=O)N(CC(C)C)[C@@H](CCCCNC(=O)OC2c3ccccc3-c3ccccc32)C(=O)O)cc1 | 105 | –
13 | CC(C)CN([C@@H](CCCCNC(=O)OCC1c2ccccc2-c2ccccc21)C(=O)O)S(=O)(=O)c1ccc([N+](=O)[O-])cc1 | 7.2 | –
14 | Cc1ccc(S(=O)(=O)NCCC[C@H](NC(=O)OCC2c3ccccc3-c3ccccc32)C(=O)O)cc1 | 26200 | –
15 | Cc1ccc(S(=O)(=O)N(CC(C)C)[C@@H](CCCCNC(=O)OC2c3ccccc3-c3ccccc32)C(N)=O)cc1 | 107 | –
16 | Cc1ccc(S(=O)(=O)N(CC2CC2)[C@@H](CCCCNC(=O)OCC2c3ccccc3-c3ccccc32)C(=O)O)cc1 | 3.9 | –
17 | CCC(C)CN([C@@H](CCCCNC(=O)OCC1c2ccccc2-c2ccccc21)C(=O)O)S(=O)(=O)c1ccc(C)cc1 (stereo partly drawn) | 13.5 | –
18 | Cc1ccc(S(=O)(=O)N(CC(C)C)[C@@H](CCCCNC(=O)CC2c3ccccc3-c3ccccc32)C(=O)O)cc1 | 89.7 | –

Row | Compound | Ki [1] [nM] | also measured
19 | Cc1ccc(S(=O)(=O)N(CC(C)C)[C@H](CN)CCCCNC(=O)OC2c3ccccc3-c3ccccc32)cc1 | > 300 | –
20 | Cc1ccc(S(=O)(=O)N[C@@H](CCCCNC(=O)OC(C)(C)C)C(=O)O)cc1 | > 100000 | –
21 | CC(C)CN([C@@H](CCCCNC(=O)OCC1c2ccccc2-c2ccccc21)C(=O)O)S(=O)(=O)c1cccs1 | 42 | –
22 | Cc1ccc(S(=O)(=O)N(CC(C)C)[C@@H](CCCNC(=O)OCC2c3ccccc3-c3ccccc32)C(=O)O)cc1 | 180 | –
23 | CC(C)CN([C@@H](CCCCNC(=O)OCC1c2ccccc2-c2ccccc21)C(=O)O)S(=O)(=O)c1ccc(C(C)(C)C)cc1 | 257 | –
24 | Cc1ccc(S(=O)(=O)N(CC(C)C)[C@@H](CCCCNC(=O)OC2c3ccccc3-c3ccccc32)C(=O)NN)cc1 | 254 | –
25 | Cc1ccc(S(=O)(=O)N(CC(C)C)[C@@H](CCCCNC(=O)OCc2ccccc2)C(=O)O)cc1 | > 250 | –
26 | COC(=O)[C@H](CCCCNC(=O)OC1c2ccccc2-c2ccccc21)N(CC(C)C)S(=O)(=O)c1ccc(C)cc1 | > 300 | –
27 | Cc1ccc(S(=O)(=O)N(CC(C)C)[C@@H](CCCCNC(=O)OC2c3ccccc3-c3ccccc32)C(=N)N)cc1 | 280 | –
28 | CC(C)CN([C@@H](CCCCNC(=O)OCC1c2ccccc2-c2ccccc21)C(=O)O)S(=O)(=O)c1ccc(N)cc1 | 2.1 | IC50 (Renin): 5200 nM; IC50 (Pepsin A): 4100 nM; IC50 [2]: 2.1 nM; IC50 [3]: 10300 nM
29 | Cc1ccc(S(=O)(=O)N(CC(C)C)[C@@H](CCCCNC(=O)OCC2c3ccccc3-c3ccccc32)C(=O)O)cc1 | 5 | IC50 (Renin): 6500 nM; IC50 (Pepsin A): 5400 nM; IC50 [2]: 5 nM; IC50 [3]: 15600 nM
30 | Cc1ccc(S(=O)(=O)N(CC(C)C)[C@H](C=O)CCCCNC(=O)OC2c3ccccc3-c3ccccc32)cc1 | > 300 | –
31 | Cc1ccc(S(=O)(=O)N(CC2CCCC2)[C@@H](CCCCNC(=O)OCC2c3ccccc3-c3ccccc32)C(=O)O)cc1 | 5.2 | –
32 | CC(C)CN([C@@H](CCCCNC(=O)OCC1c2ccccc2-c2ccccc21)C(=O)O)S(=O)(=O)c1ccc(F)cc1 | 17.4 | –
33 | Cc1ccc(S(=O)(=O)N(CC(C)C)[C@@H](CNC(=O)OCC2c3ccccc3-c3ccccc32)C(=O)O)cc1 | > 250 | –
34 | Cc1ccc(S(=O)(=O)N(CC(C)C)[C@@H](CCNC(=O)OCC2c3ccccc3-c3ccccc32)C(=O)O)cc1 | > 250 | –
35 | Cc1ccc(S(=O)(=O)N(CCCC[C@H](NC(=O)OCC2c3ccccc3-c3ccccc32)C(=O)O)CC(C)C)cc1 | 2000 | –
